According to patent US11926594B1, “6′-(3-bromophenyl)-2′-ethoxy-3,4′-bipyridine-3′-carbonitrile as an antioxidant compound” (KING FAISAL UNIVERSITY, priority 2023, dated 2024):

Experiment: DPPH radical scavenging antioxidant test
Assay type: biochemical
Conditions: 517 nm; for Inhibition (radical scavenging inhibition): compound 3 μM in ethanol, 0.2 mL DPPH (0.75 mM), 30 minutes in the dark
Procedure: The antioxidant activity of 6′-(3-bromophenyl)-2′-ethoxy-3,4′-bipyridine-3′-carbonitrile was investigated by 2,2-diphenyl-1-picrylhydrazyl (DPPH) in vitro tests that employ vitamin C as the positive control.
The antioxidant properties of the 6′-(3-bromophenyl)-2′-ethoxy-3,4′-bipyridine-3′-carbonitrile compound were studied by adding 0.2 mL DPPH (0.75 mM)) to 6′-(3-bromophenyl)-2′-ethoxy-3,4′-bipyridine-3′-carbonitrile (3 μM) (4) in ethanol. After 30 minutes of incubation in the dark, the absorbance was read against a blank at 517 nm. Ascorbic acid (vitamin C) was used as standard antioxidants (positive control). A blank sample was prepared by 0.2 mL of DPPH in 3 mL ethanol. A negative control sample was run using ethanol instead of the sample. The radical scavenging inhibition was calculated using the following equation: […]

SMILES | antioxidant potential (DPPH) compared to vitamin C (DPPH in vitro test, vitamin C as positive control) | Inhibition (radical scavenging inhibition)
CCOc1nc(-c2cccc(Br)c2)cc(-c2cccnc2)c1C#N [Product 4, 6′-(3-bromophenyl)-2′-ethoxy-3,4′-bipyridine-3′-carbonitrile] | high potential as an antioxidant compared to vitamin C | 48%
O=C1O[C@H]([C@@H](O)CO)C(O)=C1O [vit c, Ascorbic acid, reference compound] | – | 74%
